# Measured values taken from patent US6610689B2, “HIV protease inhibitors based on amino acid derivatives” (priority 2001, dated 2003).
# Biological target: T1, HIV protease (Human immunodeficiency virus type 1 group M subtype B, UniProt P04585)
# T1 construct: A third viral enzyme known as protease then cleaves the polyproteins
# Assay: Enzymatic Assay for Determining the Inhibition Constant (Ki) of Synthetic Compounds Targeting the HIV Protease (fluorometric FRET assay)
# Format: biochemical
# Conditions: not given
# From the text: Enzymatic Assay for Determining the Inhibition Constant (Ki) of Synthetic Compounds Targeting the HIV Protease
# This is a fluorometric assay based on the cleavage by protease of a substrate carrying a donor group (EDANS) and an acceptor group (DABCYL) on each side of the cleavage site, interacting together through fluorescence resonance energy transfer (FRET) as described by Matayoshi et al. (Science 247:[…], 1990).
# After calculation of Vo and Vi, the inhibition constant (Ki) of the compound is determined using the equation of Henderson: [formula]
# where Vo=the enzyme's initial velocity
# Vi=the enzyme velocity in the presence of the inhibitory compound,
# [I]=inhlibitor concentration, [S]=substrate concentration,
# Km=Michaelis-Menten constant and Kiapp=apparent Ki
# Graphs are traced and the Ki determined using GraphPad Prism software v. 3.0.
row,SMILES,Ki [nM]
1,"Cc1ccc(S(=O)(=O)N[C@@H](Cc2ccccc2)C(=O)NCCCC[C@@H](C(=O)O)N(CC(C)C)S(=O)(=O)c2ccc(C)cc2)cc1 [Example 1, Nα-Isobutyl-Nα-(4-methylbenzenesulfonyl)-Nε-[N′α-(4-methylbenzenesulfonyl)-L-phenylalanyl]-L-lysine]",1.1
2,"Cc1ccc(S(=O)(=O)N[C@@H](Cc2c[nH]c3ccccc23)C(=O)NCCCC[C@@H](C(=O)O)N(CC(C)C)S(=O)(=O)c2ccc(C)cc2)cc1 [Example 2, Nα-Isobutyl-Nα-(4-methylbenzenesulfonyl)-Nε-[N′α-(4-methylbenzenesulfonyl)-L-tryptophanyl]-L-lysine]",0.513
3,"CC(=O)Nc1ccc(S(=O)(=O)N[C@@H](Cc2ccccc2)C(=O)NCCCC[C@@H](C(=O)O)N(CC(C)C)S(=O)(=O)c2ccc(C)cc2)cc1 [Example 3, Nα-Isobutyl-Nα-(4-methylbenzenesulfonyl)-Nε-[N′α-(4-acetamidobenzenesulfonyl)-L-phenylalanyl]-L-lysine]",0.977
4,"Cc1ccc(S(=O)(=O)N(CC(C)C)[C@@H](CCCCNC(=O)[C@H](Cc2c[nH]c3ccccc23)NS(=O)(=O)c2ccccc2)C(=O)O)cc1 [Example 4, Nα-Isobutyl-Nα-(4-methylbenzenesulfonyl)-Nε-(N′α-benzenesulfonyl-L-tryptophanyl)-L-lysine]",1
5,"CC(C)CN([C@@H](CCCCNC(=O)[C@H](Cc1c[nH]c2ccccc12)NS(=O)(=O)c1ccc(N)cc1)C(=O)O)S(=O)(=O)c1ccc(N)cc1 [Example 5, Nα-Isobutyl-Nα-(4-aminobenzenesulfonyl)-Nε-[N′α-(4-aminobenzenesuifonyl)-L-tryptophanyl]-L-lysine]",0.459
6,"Cc1ccc(S(=O)(=O)N(CC(C)C)[C@@H](CCCCNC(=O)[C@H](Cc2c[nH]c3ccccc23)NS(=O)(=O)c2ccc([N+](=O)[O-])cc2)C(=O)O)cc1 [Example 6, Nα-Isobutyl-Nα-(4-methylbenzenesulfonyl)-Nε-[N′α-(4-nitrobenzenesulfonyl)-L-tryptophanyl]-L-lysine]",7.3
7,"Cc1ccc(S(=O)(=O)N[C@H](Cc2ccccc2)C(=O)NCCCC[C@@H](C(=O)O)N(CC(C)C)S(=O)(=O)c2ccc(C)cc2)cc1 [Example 7, Nα-Isobutyl-Nα-(4-methylbenzenesulfonyl)-Nε-[N′α-(4-methylbenzenesulfonyl)-D-phenylalanyl]-L-lysine]",120
8,"Cc1ccc(S(=O)(=O)N(CC(C)C)[C@@H](CCCCNC(=O)[C@H](Cc2ccccc2)NS(=O)(=O)c2ccccc2)C(=O)O)cc1 [Example 8, Nα-Isobutyl-Nα-(4-methylbenzenesulfonyl)-Nε-(N′α-benzenesulfonyl-L-phenylalanyl)-L-lysine]",1.9
9,"Cc1ccc(S(=O)(=O)N(CC(C)C)[C@@H](CCCCNC(=O)[C@H](Cc2ccccc2)NS(=O)(=O)c2ccc(Cl)cc2)C(=O)O)cc1 [Example 9, Nα-Isobutyl-Nα-(4-methylbenzenesulfonyl)-Nε-[N′α-(4-chlorobenzenesulfonyl)-L-phenylalanyl]-L-lysine]",6.8
10,"Cc1ccc(S(=O)(=O)N(CC(C)C)[C@@H](CCCCNC(=O)[C@H](Cc2ccccc2)NS(=O)(=O)c2ccc([N+](=O)[O-])cc2)C(=O)O)cc1 [Example 10, Nα-Isobutyl-Nα-(4-methylbenzenesulfonyl)-Nε-[N′α-(4-nitrobenzenesulfonyl)-L-phenylalanyl]-L-lysine]",18
11,"CCC[C@H](NS(=O)(=O)c1ccccc1)C(=O)NCCCC[C@@H](C(=O)O)N(CC(C)C)S(=O)(=O)c1ccc(C)cc1 [Example 14, Nα-Isobutyl-Nα-(4-methylbenzenesulfonyl)-Nε-[N′α-(benzenesulfonyl)-L-norvalyl]-L-lysine]",185
12,"CCCC[C@H](NS(=O)(=O)c1ccccc1)C(=O)NCCCC[C@@H](C(=O)O)N(CC(C)C)S(=O)(=O)c1ccc(C)cc1 [Example 15, Nα-Isobutyl-Nα-(4-methylbenzenesulfonyl)-Nε-[N′α-(benzenesulfonyl)-L-norleucyl]-L-lysine]",34
13,"Cc1ccc(S(=O)(=O)N(CC(C)C)[C@@H](CCCCNC(=O)[C@H](CC(C)C)NS(=O)(=O)c2ccc([N+](=O)[O-])cc2)C(=O)O)cc1 [Example 16, Nα-Isobutyl-Nα-(4-methylbenzenesulfonyl)-Nε-[N′α-(4-nitrobenzenesulfonyl)-L-leucyl]-L-lysine]",34
14,"Cc1ccc(S(=O)(=O)N(CC(C)C)[C@@H](CCCCNC(=O)[C@H](Cc2ccccc2)NS(=O)(=O)c2ccc(F)cc2)C(=O)O)cc1 [Example 18, Nα-Isobutyl-Nα-(4-methylbenzenesulfonyl)-Nε-[N′α-(4-fluorobenzenesulfonyl)-L-phenylalanyl]-L-lysine]",8.3
15,"Cc1ccc(S(=O)(=O)N(CC(C)C)[C@@H](CCCCNC(=O)[C@H](Cc2ccccc2)NS(=O)(=O)c2ccc3ccccc3c2)C(=O)O)cc1 [Example 19, Nα-Isobutyl-Nα-(4-methylbenzenesulfonyl)-Nε-[N′α-(2-naphthylsulfonyl)-L-phenylalanyl]-L-lysine]",11
16,"Cc1ccc(S(=O)(=O)NCC(=O)NCCCC[C@@H](C(=O)O)N(CC(C)C)S(=O)(=O)c2ccc(C)cc2)cc1 [Example 21, Nα-Isobutyl-Nα-(4-methylbenzenesulfonyl)-Nε-[N′α-(4-methylbenzenesulfonyl)-glycyl]-L-lysine]",21
17,"Cc1ccc(S(=O)(=O)N(CC(C)C)[C@@H](CCCCNC(=O)[C@H](CC(C)C)NS(=O)(=O)c2ccccc2)C(=O)O)cc1 [Example 22, Nα-Isobutyl-Nα-(4-methylbenzenesulfonyl)-Nε-(N′α-benzenesulfonyl-L-leucyl]-L-lysine]",29
18,"Cc1ccc(S(=O)(=O)N(CC(C)C)[C@@H](CCCCNC(=O)[C@H](Cc2ccccc2)NS(=O)(=O)c2ccc(C(F)(F)F)cc2)C(=O)O)cc1 [Example 23, Nα-Isobutyl-Nα-(4-methylbenzenesulfonyl)-Nε-[N′α-(4-trifluoromethylbenzenesulfonyl)-L-phenylalanyl]-L-lysine]",12
19,"Cc1ccc(S(=O)(=O)N(CC(C)C)[C@@H](CCCCNC(=O)[C@H](Cc2ccccc2)NS(=O)(=O)c2cccs2)C(=O)O)cc1 [Example 24, Nα-Isobutyl-Nα-(4-methylbenzenesulfonyl)-Nε-[N′α-(2-thiophenesulfonyl)-L-phenylalanyl]-L-lysine]",0.506
20,Cc1ccc(S(=O)(=O)N(CC(C)C)[C@@H](CCCCNC(=O)[C@H](CC(N)=O)NS(=O)(=O)c2ccccc2)C(=O)O)cc1 [Example 25],5.3

# Same assay, conditions: Anti-protease activity of Ne-amino acid substituted L-lysine derivatives and analogs of formula I; read-out: Ki
row,SMILES,Ki [nM]
1,"Cc1ccc(S(=O)(=O)N(CC(C)C)[C@@H](CCCCNC(=O)[C@H](Cc2c[nH]c3ccccc23)NS(=O)(=O)c2ccc(N)cc2)C(=O)O)cc1 [Example 12, Nα-Isobutyl-Nα-(4-methylbenzenesulfonyl)-Nε-[N′α-(4-aminobenzenesulfonyl)-L-tryptophanyl]-L-lysine]",0.311

# Same assay, conditions: Anti-protease activity; read-out: Ki
row,SMILES,Ki [nM]
1,"Cc1ccc(S(=O)(=O)N(CC(C)C)[C@@H](CCCCNC(=O)[C@@H]2C[C@@H](O)CN2S(=O)(=O)c2ccccc2)C(=O)O)cc1 (relative stereo) [Example 17, Nα-Isobutyl-Nα-(4-methylbenzenesulfonyl)-Nε-[N′α-(benzenesulfonyl)-4-trans-hydroxy-L-prolyl]-L-lysine]",55
